From the supplement of paper PMC10307832

Compound: CC(C)N(CCCNC(=O)Nc1ccc(C(C)(C)C)cc1)C[C@H]1O[C@@H](n2ccc3c(N)ncnc32)[C@H](O)[C@@H]1O + Nc1ncn([C@H]2C[C@H](O)[C@@H](CO)O2)c(=O)n1 [Decitabine] (partner 2 µM)
Assay: relative viability (nuclei count vs DMSO), 5 days (fraction); higher = more cells survive
Details: first compound 0.253 µM
In short: (§1)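 Five library-drug doses in √10 steps were combined with a fixed anchor-drug dose, or a single drug was given alone, by pin tool to lung cancer cell lines in 1536-well plates the day after seeding. Nuclei were stained and counted after 5 days. Relative viability is the nuclei count in treated wells over that in vehicle wells, taken as the median of duplicate plates.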

Row | Cell Line | relative viability
1 | PC-3 [JPC-3] | 0.726
2 | LCLC-103H | 0.719
3 | NCI-H647 | 0.374
4 | EMC-BAC-2 | 1.02
5 | NCI-H2087 | 0.303
6 | HCC-366 | 0.335
7 | NCI-H1666 | 0.697
8 | NCI-H650 | 0.372
9 | LK-2 | 0.293
10 | NCI-H2126 | 0.591
11 | NCI-H1648 | 0.464
12 | SK-MES-1 | 0.377
13 | H3255 | 0.645
14 | COR-L23 | 0.33
15 | COR-L 105 | 0.67
16 | LOU-NH91 | 0.815
17 | ChaGo-K-1 | 0.545
18 | NCI-H2170 | 0.418
19 | NCI-H3122 | 0.467
20 | HOP-62 | 0.207
21 | HCC-44 | 1.01
22 | A549 | 0.292
23 | NCI-H522 | 0.737
24 | SW 900 | 0.43
25 | NCI-H2023 | 0.25
26 | NCI-H661 | 0.469
27 | SK-LU-1 | 0.642

Same assay, conditions: first compound 0.8 µM

Row | Cell Line | relative viability
28 | NCI-H2342 | 0.655
29 | PC-14 | 0.215
30 | NCI-H1650 | 0.262
31 | NCI-H2009 | 0.438
32 | NCI-H1993 | 0.564
33 | NCI-H520 | 0.405
34 | LCLC-103H | 0.666
35 | NCI-H647 | 0.363
36 | EMC-BAC-2 | 1.07
37 | NCI-H2087 | 0.232
38 | HCC-366 | 0.317
39 | NCI-H1666 | 0.808
40 | NCI-H650 | 0.335
41 | LK-2 | 0.388
42 | NCI-H2126 | 0.557
43 | NCI-H1648 | 0.446

Row | Cell Line | relative viability
44 | SK-MES-1 | 0.36
45 | H3255 | 0.491
46 | COR-L23 | 0.467
47 | COR-L 105 | 0.736
48 | ChaGo-K-1 | 0.494
49 | NCI-H2170 | 0.42
50 | NCI-H3122 | 0.462
51 | HOP-62 | 0.21
52 | HCC-44 | 0.714
53 | A549 | 0.291
54 | NCI-H522 | 0.71
55 | NCI-H2023 | 0.242
56 | NCI-H661 | 0.542
57 | SW 1573 | 0.636
58 | SK-LU-1 | 0.657

Same assay, conditions: first compound 2.53 µM

Row | Cell Line | relative viability
59 | NCI-H2342 | 0.815
60 | PC-14 | 0.231
61 | NCI-H1650 | 0.432
62 | NCI-H2009 | 0.39
63 | NCI-H1993 | 0.6
64 | NCI-H520 | 0.471
65 | PC-3 [JPC-3] | 0.799
66 | LCLC-103H | 0.716
67 | NCI-H647 | 0.336
68 | EMC-BAC-2 | 1.09
69 | NCI-H2087 | 0.336
70 | HCC-366 | 0.294
71 | NCI-H1666 | 0.832
72 | NCI-H650 | 0.315
73 | LK-2 | 0.325
74 | NCI-H2126 | 0.551
75 | NCI-H1648 | 0.398

Row | Cell Line | relative viability
76 | SK-MES-1 | 0.384
77 | H3255 | 0.626
78 | COR-L23 | 0.48
79 | COR-L 105 | 0.638
80 | LOU-NH91 | 0.858
81 | ChaGo-K-1 | 0.522
82 | NCI-H2170 | 0.438
83 | NCI-H3122 | 0.409
84 | HOP-62 | 0.195
85 | HCC-44 | 0.966
86 | A549 | 0.215
87 | NCI-H522 | 0.729
88 | SW 900 | 0.42
89 | NCI-H2023 | 0.205
90 | NCI-H661 | 0.577
91 | SW 1573 | 0.512
92 | SK-LU-1 | 0.702

Same assay, conditions: first compound 8 µM

Row | Cell Line | relative viability
93 | NCI-H2342 | 0.713
94 | PC-14 | 0.206
95 | NCI-H1650 | 0.357
96 | NCI-H2009 | 0.372
97 | NCI-H1993 | 0.559
98 | NCI-H520 | 0.492
99 | PC-3 [JPC-3] | 0.864
100 | LCLC-103H | 0.68
101 | NCI-H647 | 0.392
102 | EMC-BAC-2 | 0.96
103 | NCI-H2087 | 0.256
104 | HCC-366 | 0.352
105 | NCI-H1666 | 0.673
106 | NCI-H650 | 0.324
107 | LK-2 | 0.22
108 | NCI-H2126 | 0.508
109 | NCI-H1648 | 0.548

Row | Cell Line | relative viability
110 | SK-MES-1 | 0.377
111 | H3255 | 0.511
112 | COR-L23 | 0.456
113 | COR-L 105 | 0.694
114 | LOU-NH91 | 0.793
115 | ChaGo-K-1 | 0.505
116 | NCI-H2170 | 0.471
117 | NCI-H3122 | 0.481
118 | HOP-62 | 0.198
119 | HCC-44 | 0.915
120 | A549 | 0.189
121 | NCI-H522 | 0.696
122 | SW 900 | 0.404
123 | NCI-H2023 | 0.191
124 | NCI-H661 | 0.623
125 | SW 1573 | 0.543
126 | SK-LU-1 | 0.568

Compound: CC(C)N(CCCNC(=O)Nc1ccc(C(C)(C)C)cc1)C[C@H]1O[C@@H](n2ccc3c(N)ncnc32)[C@H](O)[C@@H]1O + CS(=O)(=O)N1CCN(Cc2cc3nc(-c4cccc5[nH]ncc45)nc(N4CCOCC4)c3s2)CC1 [Pictilisib] (partner 1 µM)
Assay: as above
Details: first compound 0.08 µM
In short: as §1

Row | Cell Line | relative viability
127 | PC-14 | 0.657
128 | NCI-H1650 | 0.55
129 | EBC-1 | 0.334
130 | NCI-H1703 | 0.223
131 | NCI-H2009 | 0.817
132 | NCI-H1993 | 0.822
133 | NCI-H520 | 0.273
134 | PC-3 [JPC-3] | 0.757
135 | LCLC-103H | 0.639
136 | NCI-H647 | 0.406
137 | NCI-H2228 | 0.483
138 | EMC-BAC-2 | 0.601
139 | NCI-H2087 | 0.898
140 | Calu-6 | 0.929
141 | HCC-366 | 0.128
142 | NCI-H1666 | 0.354

Row | Cell Line | relative viability
143 | NCI-H650 | 0.807
144 | LK-2 | 0.56
145 | NCI-H2126 | 0.499
146 | SK-MES-1 | 0.359
147 | H3255 | 0.463
148 | COR-L23 | 0.678
149 | COR-L 105 | 0.413
150 | IA-LM | 0.27
151 | LOU-NH91 | 0.537
152 | ChaGo-K-1 | 0.771
153 | NCI-H2170 | 0.36
154 | NCI-H3122 | 0.653
155 | HOP-62 | 0.723
156 | HCC-44 | 0.542
157 | A549 | 0.513
158 | NCI-H2023 | 0.265
